We go through 1 compound from US20070248705A1, “Agents for Activating the Transcription Factor Nrf2 and Foods Having Such Function” (KIRIN BEER KABUSHIKI KAISHA, priority 2004, published 2007).

Structures are written as SMILES.

Assay [1] relates to thioredoxin reductase 1 (TXNRD1). The experiment in a line: Expression of genes controlled by Nrf2 in RAW264.7: TXNRD1. The format is cell-based, mouse. The settings on record: RAW264.7, 25 μM, 20 hours. The method, then: A mouse macrophage cell line RAW264.7 was seeded on a φ60 mm dish (9×10^5 cells), 2 ml of a D-MEM medium (Invitrogen) supplemented with 10% fetal bovine serum (HyClone) and penicillin-streptomycin (100 units/ml and 100 μg/ml, respectively; Sigma) was added, and the dish was incubated at 37° C. in an atmosphere of 5% CO2 for 2 days. The medium was replaced with a fresh medium containing individual samples and incubation was continued for another 20 hours. Then, the total RNA was prepared using TRIzol (Invitrogen) and purified using a RNeasy Mini kit (Qiagen) and an RNase-free DNase set (Qiagen). Further, cDNA was synthesized from 5 μg of the purified total RNA using a Thermo Script RT-PCR system (Invitrogen), and the amount of mRNA expression of various genes was determined using a FastStart DNA Master SYBR Green I kit (Roche) and a Light Cycler (Roche).
The amount of expression of the various genes was corrected by the amount of expression of the housekeeping gene PO and calculated as a relative expression level (n=2, mean±standard deviation). […]

Assay [2] relates to mouse macrophage cell line RAW264.7. The experiment in a line: Amount of intracellular glutathione. As to conditions: RAW264.7, 25 μM, 20 hours. The class given is cell-based. The protocol:
A mouse macrophage cell line RAW264.7 was seeded on a φ60 mm dish (7×10^5 cells), 2 ml of a D-MEM medium (Invitrogen) supplemented with 10% fetal bovine serum (HyClone) and penicillin-streptomycin (100 units/ml and 100 μg/ml, respectively; Sigma) was added, and the dish was incubated at 37° C. in an atmosphere of 5% CO2 for 2 days. The medium was replaced with a fresh medium containing individual samples and incubation was continued for another 20 hours. The samples added were isohumulone (IH(F)) and isohumulone (IcH(G)) at a concentration of 25 μM. The cells were recovered, broken by ultrasonication, and centrifuged to obtain the supernatant, and the amount of the total intracellular glutathione was measured using a glutathione assay kit (Cayman Chemical) (n=2, mean±standard deviation). As a positive control, 15dPGJ2 (Cayman Chemical) was used.

For `CC(C)=CCC(=O)C1(O)C(O)=C(C(=O)CC(C)C)C(=O)C1CC=C(C)C` (centres unmarked) [IH (F), isohumulone], the “expression of TRNRD1” value in assay [1] is recorded as “augmented the expression”. Also, the “amount of the total intracellular glutathione” value in assay [2] was “Increased the amount of the total intracellular glutathione”.
